Values after ≈ are worked out from the molar mass of the structure shown.
Tests used:
[1] = Log D (pH7.4 shake flask); type: physicochemical; settings: pH 7.4; 1-octanol/phosphate buffer shake flask; read-out: mLogD (pH 7.4)
Procedure: Phosphate buffer (1 M) was diluted to 20 mM with deionised water and adjusted to pH 7.4 with phosphoric acid or sodium hydroxide. 1-octanol and phosphate buffer (20 mM) were saturated overnight by tumbling. The two phases were separated using a separation funnel. 5 μL of 5 mM compound cassette was added to 495 μL of octanol-saturated buffer and 495 μL buffer saturated octanol in a 96-well plate (top concentration 50 μM). Plate was shaken for 1 h and centrifuged at 25° C. for 5 min. 200 μL of each phase was transferred to a separate plate. The octanol layer was sampled first to avoid cross contamination. 5 μL of the solutions were transferred to 495 μL of quench solution* (max concentration 0.5 μM). In addition, 40 μL of buffer solution was added to 360 μL of quench solvent (max concentration 5 μM). Samples were analysed by LC-MS/MS. Benchmarking against a calibration curve for each compound and with reference to the control compounds sulpride, diclofenac, chlorpromazine and tamoxifen. *Quench solution was a 1:3:1 mixture (v/v/v) of Acetonitrile containing 0.1% formic acid and imipramine/labetalol, 200 nM:Acetonitrile:Water.

[2] = Kinetic solubility determination (high throughput); type: physicochemical; settings: kinetic from dmso stock, sterile water, 5% DMSO, room temperature
Procedure: Test compounds (10 μL; 20 mM DMSO solution) were added to sterile water (190 μL) in triplicate and shaken at 300 rpm at room temperature. After 90 min. the test compounds were filtered by centrifuge (5 min. at 3000 rpm) to obtain the aqueous filtrate. Acetonitrile (20 μL) was dispensed into clean 96-well UV/VIS analysis plate and aqueous filtrate (80 μL) added and the plate analysed for test compound concentration using a Molecular Devices SPECTRAmax® plus microplate reader at the following wavelengths: (280, 300, 320, 340, 360, 800 nm). […] The diluted filtrate (80 μL) was then added to acetonitrile (20 μL) and the plate analysed. as previously.

[3] = molecular target: T1, human TMEM16A (TMEM16Aabc variant) (Homo sapiens, UniProt Q5XXA6, DEL476-501); test: Automated whole-cell patch clamp (Qpatch) TMEM16A potentiator assay in recombinant FRT cells; type: cell-based; settings: for activation at 3.33 µM: percentage increase of baseline TMEM16A current, minimum n = 2, read-out: % Potentiation @ 3.33 uM Avg; for EC50: minimum n = 2
T1 sequence (Q5XXA6 with tags, fused parts or gaps isoform Q5XXA6-5 DEL539-564): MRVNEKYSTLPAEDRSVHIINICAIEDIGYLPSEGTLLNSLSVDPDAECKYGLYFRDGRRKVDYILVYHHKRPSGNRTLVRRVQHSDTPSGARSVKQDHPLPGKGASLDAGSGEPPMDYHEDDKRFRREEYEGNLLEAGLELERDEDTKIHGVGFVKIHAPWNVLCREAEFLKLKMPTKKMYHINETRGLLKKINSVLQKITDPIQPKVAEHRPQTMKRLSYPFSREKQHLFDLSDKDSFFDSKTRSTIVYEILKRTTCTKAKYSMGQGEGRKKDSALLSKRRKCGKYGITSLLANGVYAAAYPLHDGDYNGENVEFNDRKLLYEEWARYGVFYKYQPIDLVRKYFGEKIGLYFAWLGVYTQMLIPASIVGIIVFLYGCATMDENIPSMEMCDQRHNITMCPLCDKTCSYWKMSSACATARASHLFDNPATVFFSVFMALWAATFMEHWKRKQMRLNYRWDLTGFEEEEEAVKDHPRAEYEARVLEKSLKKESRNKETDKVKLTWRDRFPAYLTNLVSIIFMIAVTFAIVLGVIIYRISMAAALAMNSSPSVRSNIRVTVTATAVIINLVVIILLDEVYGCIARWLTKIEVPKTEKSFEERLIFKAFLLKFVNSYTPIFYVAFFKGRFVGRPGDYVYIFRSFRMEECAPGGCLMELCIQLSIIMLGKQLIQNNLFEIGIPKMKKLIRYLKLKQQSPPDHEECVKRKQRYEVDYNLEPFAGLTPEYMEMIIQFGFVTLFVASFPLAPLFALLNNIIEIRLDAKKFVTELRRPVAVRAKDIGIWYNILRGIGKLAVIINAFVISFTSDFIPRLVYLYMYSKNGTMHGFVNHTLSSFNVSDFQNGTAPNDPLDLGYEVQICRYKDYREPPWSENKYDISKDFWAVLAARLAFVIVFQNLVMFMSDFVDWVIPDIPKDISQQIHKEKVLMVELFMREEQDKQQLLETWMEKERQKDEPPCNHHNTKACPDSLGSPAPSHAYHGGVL
Procedure: Automated Whole-Cell Patch Clamp Assay to Detect TMEM16A Activity in Recombinant Cells
Fisher rat thyroid (FRT) cells stably expressing human TMEM16A (TMEM16Aabc variant; Dr Luis Galietta, Insituto Giannina, Italy) were cultured in T-75 flasks in Hams F-12 media with Coon's modification (Sigma) supplemented with 10% (v/v) foetal bovine serum, penicillin-streptomycin (10,000 U/mL/10000 μg/mL), G-418 (750 μg/mL), L-glutamine (2 mM) and sodium bicarbonate solution (7.5% v/v). At ˜90% confluence cells were harvested for experiments by detachment with a 2:1 (v/v) mixture of Detachin (BMS Biotechnology) and 0.25% (w/v) trypsin-EDTA.
FRT-TMEM16A cells were whole-cell patch clamped using an automated planar patch clamp system (Qpatch, Sophion). Briefly, once high resistance (GOhm) seals were established between the cells and the planar recording array the patch was ruptured using suction pulses to establish the whole-cell recording configuration of the patch clamp technique. The assay employed the following solutions (all reagents Sigma): Intracellular solution (mM): N-methyl-D-glucamine 130, CaCl2 18.2, MgCl2 1, HEPES 10, EGTA 10, BAPTA 20, Mg-ATP 2, pH 7.25, 325 mOsm with sucrose.
Extracellular solution (mM): N-methyl-D-glucamine 130, CaCl2 2, MgCl2 1, HEPES 10, pH 7.3, 320 mOsm with sucrose.
The intracellular solution buffers intracellular calcium at levels required to give ˜20% activation of the maximal TMEM16A mediated current (E020 for calcium ions). Cells were voltage clamped at a holding potential of −70mV and a combined voltage step (to +70 mV)/ramp (−90 my to +90 mV) was applied at 0.05 Hz. After a period of current stabilisation test compounds, solubilised in 100% (v/v) DMSO and subsequently diluted into extracellular solution, were applied to generate a cumulative concentration response curve. Each concentration of test compound was incubated for 5 minutes before addition of the next concentration. After the final concentration was tested a supramaximal concentration of either a known active positive modulator or the TMEM16A inhibitor, CaCCinhA01 (Del La Fuente et al, 2008) was added to define the upper and lower limits of the assay.
Compound activity was quantified by measuring the increase in current upon compound addition and expressing this as a percentage increase of baseline TMEM16A current level.
Peak TMEM16A current at +70 mV was plotted as a function of time over the assay period. Baseline current (IBL) was measured after a period of stabilisation. The increase in current for each compound addition was determined by taking the peak current during the incubation period and subtracting the current from the previous recording period and then expressing this as a percentage of the baseline current (% potentiation). For test compound concentration 1 in FIG. 1 this is:
For each additional concentration tested the increase in current was determined by subtracting the current from the previous incubation period and normalising the baseline value—for test concentration 2 in FIG. 1 this is:
The values for each test concentration were plotted as a cumulative function of concentration eg. for test concentration two this would be the sum of the peak changes measured during concentration one plus concentration two.

Row | SMILES | logD [1] | solubility kinetic at 90 min [2] [µg/mL] | activation at 3.33 µM [3] [%] | EC50 [3] [nM]
1 | CC(C)(CO)c1cc(F)c(CC(=O)Nc2ccnc(C(=O)NC3(C(F)(F)F)CC3)c2)c(F)c1O [Example 16.4, 4-[[2-[2,6-Difluoro-3-hydroxy-4-(2-hydroxy-1,1-dimethyl-ethyl)phenyl]acetyl]amino]-N-[1-(trifluoromethyl)cyclopropyl]pyridine-2-carboxamide] | 3.6 | 75 (≈ 154 µM) | 280 | 18
2 | CC(C)(C)c1cc(Cl)c(CC(=O)Nc2ccnc(C(=O)NC3(C(F)(F)F)CC3)c2)cc1O [Example 10.1, 4-[[2-(4-tert-Butyl-2-chloro-5-hydroxy-phenyl)acetyl]amino]-N-[1-(trifluoromethyl)cyclopropyl]pyridine-2-carboxamide] | 3.7 | 256 (≈ 545 µM) | 250 | 57
3 | C#CC(C)(C)NC(=O)c1cc(NC(=O)Cc2cc(O)c(C(C)(C)C)cc2F)ccn1 [Example 1.1] | > 4 | 6 (≈ 14.6 µM) | 118 | 26
4 | CC(C)c1cc(C(C)(C)C)c(O)cc1CC(=O)Nc1ccnc(C(=O)NC(C)(C)C)c1 [Example 6, N-tert-Butyl-4-[[2-(4-tert-butyl-5-hydroxy-2-isopropyl-phenyl)acetyl]amino]pyridine-2-carboxamide] | > 4 | 12 (≈ 28.2 µM) | 513 | 99
5 | C=C(C)c1cc(F)c(CC(=O)Nc2ccnc(C(=O)NC3(C(F)(F)F)CC3)c2)cc1O [Example 7.1, 4-[[2-(2-Fluoro-5-hydroxy-4-isopropenyl-phenyl)acetyl]amino]-N-[1-(trifluoromethyl)cyclopropyl]pyridine-2-carboxamide] | > 4.2 | 18 (≈ 41.2 µM) | 433 | 15
6 | CC(C)(C)c1cc(F)c(CC(=O)Nc2ccnc(C(=O)NC3(C#N)CC3)c2)cc1O [Example 1.5] | 3.7 | 11 (≈ 26.8 µM) | 148 | 65
7 | CC(C)(C#N)NC(=O)c1cc(NC(=O)Cc2cc(O)c(C(C)(C)CN3CCOCC3)cc2F)ccn1 [Example 2.5, N-(1-Cyano-1-methyl-ethyl)-4-[[2-[4-(1,1-dimethyl-2-morpholino-ethyl)-2-fluoro-5-hydroxy-phenyl]acetyl]amino]pyridine-2-carboxamide] | 2.7 | 327 (≈ 657 µM) | 112 | 
8 | CC(C)(CO)c1cc(F)c(CC(=O)Nc2ccnc(C(=O)N[C@H]3CCC[C@@H]3O)c2)cc1O [Example 12.2, 4-[[2-[2-Fluoro-5-hydroxy-4-(2-hydroxy-1,1-dimethyl-ethyl)phenyl]acetyl]amino]-N-[(1S,2S)-2-hydroxycyclopentyl]pyridine-2-carboxamide] | 2.6 | 296 (≈ 664 µM) | 142 | 238
9 | CC(C)(C)c1cc(Cl)c(CC(=O)Nc2ccnc(C(=O)NC3(C#N)CC3)c2)cc1O [Example 10.2, 4-[[2-(4-tert-Butyl-2-chloro-5-hydroxy-phenyl)acetyl]amino]-N-(1-cyanocyclopropyl)pyridine-2-carboxamide] | 3.7 | 11 (≈ 25.8 µM) | 252 | 52
10 | CC(C)(C)NC(=O)c1cc(NC(=O)Cc2cc(O)c(C(C)(C)C#N)cc2F)ccn1 [Example 2.2, N-tert-Butyl-4-[[2-[4-(1-cyano-1-methyl-ethyl)-2-fluoro-5-hydroxy-phenyl]acetyl]amino]pyridine-2-carboxamide] | > 4.2 | 42 (≈ 102 µM) | 356 | 150
11 | CC1(NC(=O)c2cc(NC(=O)Cc3cc(O)c(C(C)(C)CO)cc3Cl)ccn2)CC(F)(F)C1 [Example 15.2, 4-[[2-[2-Chloro-5-hydroxy-4-(2-hydroxy-1,1-dimethyl-ethyl)phenyl]acetyl]amino]-N-(3,3-difluoro-1-methyl-cyclobutyl)pyridine-2-carboxamide] | > 4.2 | 44 (≈ 91.3 µM) | 195 | 36
12 | CC(C)(C)NC(=O)c1cc(NC(=O)Cc2cc(O)c(C3(C)CC3)cc2F)ccn1 [Example 8, N-tert-Butyl-4-[[2-[2-fluoro-5-hydroxy-4-(1-methylcyclopropyl)phenyl]acetyl]amino]pyridine-2-carboxamide] | > 4 | 37 (≈ 92.6 µM) | 240 | 46
13 | CC(C)(C#N)c1cc(F)c(CC(=O)Nc2ccnc(C(=O)NC3(C(F)(F)F)CC3)c2)cc1O [Example 2.3, 4-[[2-[4-(1-Cyano-1-methyl-ethyl)-2-fluoro-5-hydroxy-phenyl]acetyl]amino]-N-[1-(trifluoromethyl)cyclopropyl]pyridine-2-carboxamide] | 2.9 | 69 (≈ 149 µM) | 72.1 | 52

From US20220235006A1, “PYRIDINE DERIVATIVES AS TMEM16A MODULATORS FOR USE IN THE TREATMENT OF RESPIRATORY CONDITIONS” (TMEM16A LIMITED, priority 2019, published 2022)
